Results: paper PMC12948427 (The Journal of Clinical Investigation, 2025)
Several values for one entry are separate records, joined by “and”; a condition that tells them apart may be missing. Equal values may be shown once. Read-outs that look alike come from different tables or passages of the source.

How the values were obtained:
[1] = format: cell-based
MHV [2] = assay: microbe, parasite or virus in culture; settings: Murine coronavirus, 24 h, read-out: EC50, rescue of coronavirus-induced cytopathic effects
WIV1 [3] = format: cell-based, bat coronavirus WIV1
WIV1 [4] = assay: microbe, parasite or virus in culture; format: cell-based, bat coronavirus WIV1; settings: Bat coronavirus, 48 h, read-out: EC50 (IFA)
HCoV-NL63 = assay: In vitro antiviral activity assay (IFA), HCoV-NL63; format: cell-based; settings: for Inhibition rate (IFA): Fig 5C, MOI 0.1, 48 h
SARS-CoV-2 wild-type = assay: microbe, parasite or virus in culture; format: cell-based
MHV [5] = assay: microbe, parasite or virus in culture; format: cell-based, mouse hepatitis virus (MHV); settings: Murine coronavirus, 24 h, read-out: EC50 (IFA)
HCoV-OC43 = assay: In vitro antiviral activity assay (IFA), HCoV-OC43; format: cell-based; settings: for Inhibition rate (IFA): Fig 5E, MOI 0.1, 48 h
MHV [6] = format: cell-based, mouse hepatitis virus (MHV)
SARS-CoV-2 Omicron BA.5 = assay: microbe, parasite or virus in culture; format: cell-based; settings: Severe acute respiratory syndrome coronavirus 2, 24 h, read-out: EC50 (IFA)
HCoV-229E = assay: In vitro antiviral activity assay (IFA), HCoV-229E; format: cell-based; settings: for Inhibition rate (IFA): Fig 5F, MOI 0.1, 48 h
MHV [7] = test system: MHV
[8] = molecular target: M161 (SARS-CoV-2 M 135-161 peptide fused with HIV-TAT) (HIV | SARS-CoV-2) (UniProt P0DTC5); assay: SPR
[9] = molecular target: M146 (SARS-CoV-2 M 135-146 peptide fused with HIV-TAT) (HIV | SARS-CoV-2) (UniProt P0DTC5); assay: SPR
[10] = molecular target: M161 (SARS-CoV-2 M 135-161 peptide fused with HIV-TAT) (HIV | SARS-CoV-2) (UniProt P0DTC5); assay: SPR; remark: listed apart in the source
[11] = molecular target: M146 (SARS-CoV-2 M 135-146 peptide fused with HIV-TAT) (HIV | SARS-CoV-2) (UniProt P0DTC5); assay: SPR; remark: listed apart in the source

Chain of hHGS 1-390-6 × HIS protein (O14964 1-390): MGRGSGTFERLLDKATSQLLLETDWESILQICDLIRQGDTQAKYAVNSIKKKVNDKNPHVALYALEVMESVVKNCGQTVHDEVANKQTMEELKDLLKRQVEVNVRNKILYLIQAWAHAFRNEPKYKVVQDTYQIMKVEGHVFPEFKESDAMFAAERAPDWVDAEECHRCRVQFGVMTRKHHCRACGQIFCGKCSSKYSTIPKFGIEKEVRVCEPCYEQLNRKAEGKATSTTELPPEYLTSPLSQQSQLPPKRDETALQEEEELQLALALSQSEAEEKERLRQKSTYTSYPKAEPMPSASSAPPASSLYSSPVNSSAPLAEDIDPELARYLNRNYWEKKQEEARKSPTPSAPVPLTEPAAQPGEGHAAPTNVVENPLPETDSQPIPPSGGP
Chain of M161 (SARS-CoV-2 M 135-161 peptide fused with HIV-TAT) (HIV | SARS-CoV-2) (P0DTC5 135-161 limits assumed): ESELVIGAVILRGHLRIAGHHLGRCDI

CCC(CC)COC(=O)[C@H](C)N[P@](=O)(OC[C@H]1O[C@@](C#N)(c2ccc3c(N)ncnn23)[C@H](O)[C@@H]1O)Oc1ccccc1 [RDV, remdesivir]
cell viability, Figures S9A, B, D-F (17Cl-1 cells; concentration 0.01): 103.896 and 102.857
cell viability, Figures S9A, B, D-F (17Cl-1 cells; concentration 0.03): 100
cell viability, Figures S9A, B, D-F (17Cl-1 cells; concentration 0.1): 100
cell viability, Figures S9A, B, D-F (17Cl-1 cells; concentration 0.3): 100
cell viability, Figures S9A, B, D-F (17Cl-1 cells; concentration 1): 100
cell viability, Figures S9A, B, D-F (17Cl-1 cells; concentration 3): 100
cell viability, Figures S9A, B, D-F (17Cl-1 cells; concentration 10): 100
cell viability, Figures S9A, B, D-F (17Cl-1 cells; concentration 25): 100
Inhibition, time-of-drug-addition (Figures S12A, S12B) ([1]; 1h, concentration 30 (unit not given)): 5.191 and 6.604 and 3.913
Inhibition, time-of-drug-addition (Figures S12A, S12B) ([1]; 1h, concentration 300 (unit not given)): 29.4212 and 36.852 and 30.2123
Inhibition, time-of-drug-addition (Figures S12A, S12B) ([1]; 1h, concentration 1000 (unit not given)): 94.0553 and 94.9808 and 93.9778
Inhibition, time-of-drug-addition (Figures S12A, S12B) ([1]; 1h, concentration 3000 (unit not given)): 100.171 and 99.7032 and 100.277
Inhibition, time-of-drug-addition (Figures S12A, S12B) ([1]; 1h, concentration 10000 (unit not given)): 100.334 and 99.9318 and 99.6732
Inhibition, time-of-drug-addition (Figures S12A, S12B) ([1]; 1h, concentration 25000 (unit not given)): 99.7405 and 99.6154 and 100.895
Inhibition, time-of-drug-addition (Figures S12A, S12B) ([1]; 3h, concentration 300 (unit not given)): 9.79 and 17.6203 and 16.0643
Inhibition, time-of-drug-addition (Figures S12A, S12B) ([1]; 3h, concentration 1000 (unit not given)): 55.9963 and 60.6001 and 59.2495
Inhibition, time-of-drug-addition (Figures S12A, S12B) ([1]; 3h, concentration 3000 (unit not given)): 88.3762 and 86.7679 and 87.568
Inhibition, time-of-drug-addition (Figures S12A, S12B) ([1]; 3h, concentration 10000 (unit not given)): 90.2121 and 88.9101 and 87.2358
Inhibition, time-of-drug-addition (Figures S12A, S12B) ([1]; 3h, concentration 25000 (unit not given)): 90.2507 and 90.1885 and 92.1218
Inhibition, time-of-drug-addition (Figures S12A, S12B) ([1]; 5h, concentration 1000 (unit not given)): 25.3228 and 41.8171 and 37.9682
Inhibition, time-of-drug-addition (Figures S12A, S12B) ([1]; 5h, concentration 3000 (unit not given)): 84.9456 and 81.9798 and 79.5741
Inhibition, time-of-drug-addition (Figures S12A, S12B) ([1]; 5h, concentration 10000 (unit not given)): 96.9121 and 98.7645 and 101.081
Inhibition, time-of-drug-addition (Figures S12A, S12B) ([1]; 5h, concentration 25000 (unit not given)): 101.735 and 102.093 and 102.226
Inhibition, time-of-drug-addition (Figures S12A, S12B) ([1]; 7h, concentration 3000 (unit not given)): 42.654 and 32.1868 and 38.6066
Inhibition, time-of-drug-addition (Figures S12A, S12B) ([1]; 7h, concentration 10000 (unit not given)): 72.2116 and 77.3057 and 82.6181
Inhibition, time-of-drug-addition (Figures S12A, S12B) ([1]; 7h, concentration 25000 (unit not given)): 95.7566 and 91.5378 and 92.3496
antiviral activity versus time of treatment start ([1]; RTB 25 μM or RDV 5 μM added at 0, 2, 4 or 6 hpi): decreased in a time-dependent manner
EC50 (MHV [2]): 690 nM
extracellular viral gRNA levels (RT-qPCR) (WIV1 [3]): 1.00 and 2.00
EC50 (WIV1 [4]): 2420 nM
Inhibition rate (IFA) (HCoV-NL63; conc 10 (unit not given)): -13.7402% and -16.2366% and -15.0261%
Inhibition rate (IFA) (HCoV-NL63; conc 300 (unit not given)): 80.1311% and 63.4462% and 86.5422%
Inhibition rate (IFA) (HCoV-NL63; conc 1000 (unit not given)): 98.8533% and 99.4472% and 99.9344%
Inhibition rate (IFA) (HCoV-NL63; conc 3000 (unit not given)): 99.4236% and 99.6729% and 98.5431%
Inhibition rate (IFA) (HCoV-NL63; conc 10000 (unit not given)): 99.8898% and 100.315% and 100.324%
Inhibition rate (IFA) (HCoV-NL63; conc 25000 (unit not given)): 100.095% and 100.184% and 100.326%
EC50 (HCoV-NL63; Human coronavirus NL63, 48 h, read-out: EC50 (IFA)): 200 nM
Inhibition rate (IFA) (SARS-CoV-2 wild-type): -18.2121%
EC50 (SARS-CoV-2 wild-type; Severe acute respiratory syndrome coronavirus 2, 24 h, read-out: EC50 (IFA)): 3510 nM
EC50 (MHV [5]): 1290 nM
EC50 (HCoV-OC43; Betacoronavirus 1, OC43, 48 h, read-out: EC50 (IFA)): 410 nM
Inhibition rate (IFA) (HCoV-OC43; conc 10 (unit not given)): 50.23% and 41.56% and 35.15%
Inhibition rate (IFA) (HCoV-OC43; conc 30 (unit not given)): 35.85% and 33.9% and 36.83%
Inhibition rate (IFA) (HCoV-OC43; conc 100 (unit not given)): 54.42% and 40.68% and 45.58%
Inhibition rate (IFA) (HCoV-OC43; conc 300 (unit not given)): 65.9% and 68.1% and 71.65%
Inhibition rate (IFA) (HCoV-OC43; conc 1000 (unit not given)): 93.48% and 93.42% and 95.53%
Inhibition rate (IFA) (HCoV-OC43; conc 3000 (unit not given)): 103.3% and 99.46% and 99.73%
Inhibition rate (IFA) (HCoV-OC43; conc 10000 (unit not given)): 112.73% and 104.65% and 109.25%
Inhibition rate (IFA) (HCoV-OC43; conc 25000 (unit not given)): 117.32% and 112.33% and 115.73%
Extracellular MHV gRNA (Figure S11A) (MHV [6]; Ctr 17Cl-1 cells, 24 hpi): 1.417 and 1.434 and 1.4484
Extracellular MHV gRNA (Figure S11A) (MHV [6]; Ctr 17Cl-1 cells, 48 hpi): 2.342 and 2.426 and 2.427
Extracellular MHV gRNA (Figure S11A) (MHV [6]; Ctr 17Cl-1 cells, 72 hpi): 2.913 and 2.938 and 2.965
Extracellular MHV gRNA (Figure S11A) (MHV [6]; Hgs-KO1 17Cl-1 cells, 24 hpi): 0.1732 and 0.2504 and 0.2945
Extracellular MHV gRNA (Figure S11A) (MHV [6]; Hgs-KO1 17Cl-1 cells, 48 hpi): 0.5159 and 0.4955 and 0.5011
Extracellular MHV gRNA (Figure S11A) (MHV [6]; Hgs-KO1 17Cl-1 cells, 72 hpi): 0.5763 and 0.5575 and 0.5302
Extracellular MHV gRNA (Figure S11A) (MHV [6]; Hgs-KO2 17Cl-1 cells, 48 hpi): 0.243 and 0.2742 and 0.2718
Extracellular MHV gRNA (Figure S11A) (MHV [6]; Hgs-KO2 17Cl-1 cells, 72 hpi): 0.4771 and 0.48 and 0.4728
antiviral activity in Hgs-KO cells (MHV [6]; MHV, Hgs-KO 17Cl-1, RTB 25 μM or RDV 5 μM, compared with DMSO-treated Hgs-KO cells): maintained potent antiviral activity
EC50 (SARS-CoV-2 Omicron BA.5): 1730 nM
Inhibition rate (IFA) (HCoV-229E; conc 30 (unit not given)): -0.99% and -1.45% and 0.82%
Inhibition rate (IFA) (HCoV-229E; conc 100 (unit not given)): -0.44% and -1.37% and -2.88%
Inhibition rate (IFA) (HCoV-229E; conc 300 (unit not given)): 11.16% and 13% and 6.71%
Inhibition rate (IFA) (HCoV-229E; conc 1000 (unit not given)): 47.55% and 40.71% and 45.97%
Inhibition rate (IFA) (HCoV-229E; conc 3000 (unit not given)): 81.01% and 82.05% and 81.07%
Inhibition rate (IFA) (HCoV-229E; conc 10000 (unit not given)): 97.22% and 97.53% and 97.6%
Inhibition rate (IFA) (HCoV-229E; conc 25000 (unit not given)): 98.73% and 98.28%
EC50 (HCoV-229E; Human coronavirus 229E, 48 h, read-out: EC50 (IFA)): 1010 nM
viability of infected cells (rescue of cytopathic effect), Figures S9G-L (MHV [7]; concentration 10): 46.7323 and 45.5347 and 44.3372
viability of infected cells (rescue of cytopathic effect), Figures S9G-L (MHV [7]; concentration 30): 45.5347 and 43.8916 and 43.4181
viability of infected cells (rescue of cytopathic effect), Figures S9G-L (MHV [7]; concentration 100): 50.492 and 47.7906 and 49.378
viability of infected cells (rescue of cytopathic effect), Figures S9G-L (MHV [7]; concentration 300): 59.7939 and 57.0925 and 55.143
viability of infected cells (rescue of cytopathic effect), Figures S9G-L (MHV [7]; concentration 1000): 78.2027 and 84.5804 and 83.9955
viability of infected cells (rescue of cytopathic effect), Figures S9G-L (MHV [7]; concentration 3000): 102.237 and 100.176 and 102.46
viability of infected cells (rescue of cytopathic effect), Figures S9G-L (MHV [7]; concentration 10000): 103.491 and 100.789 and 102.906
viability of infected cells (rescue of cytopathic effect), Figures S9G-L (MHV [7]; concentration 25000): 101.903 and 103.017 and 102.042

hHGS 1-390-6 × HIS protein (from UniProt O14964 1-390) (domain or fragment)
Kd [8]: 3.84 nM
Kd [9]: 5.73 nM
Kd [10]: 830 nM
Kd [11]: 210 nM
